In the oligonucleotide strings, read from the 5' end, every base follows the letter of its sugar. An asterisk marks phosphorothioate; unmarked linkages are phosphodiester. Other units and linkages are bracketed, terminal groups are in braces. A string of capitals states the bases alone. e = 2'-O-(2-methoxyethyl) (MOE); [5mC] = 5-methylcytosine; d = 2'-deoxy (DNA)
Tested on: human Factor 7 mRNA
Experiment: Antisense inhibition of human Factor 7 mRNA in HepB3 cells, lipofectin, 50 nM, real-time RT-PCR
Format: cell-based
Settings: Example 1; HepB3 cells, lipofectin, 50 nM, ~24 h, relative to untreated control cells
Summary of the method: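 Seeding density was 4,000 cells per well. Following roughly 24 hours of oligonucleotide treatment, RNA was extracted and Factor 7 message quantified using the RTS 2927 primer probe set. Levels were corrected for RIBOGREEN® total RNA and expressed against untreated controls.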

Substance	% Inhibition (human Factor 7 mRNA)
407654 (antisense e[5mC]*e[5mC]*eA*e[5mC]*eT*dG*d[5mC]*dA*dG*d[5mC]*d[5mC]*dA*dG*dG*dG*e[5mC]*e[5mC]*eT*eG*eG) [compound 407654]	34%
407893 (antisense eT*e[5mC]*eG*eA*eA*dG*dG*d[5mC]*dA*dG*dG*dG*dA*dG*dG*e[5mC]*eA*eG*eA*eA) [compound 407893]	33%
407617 (antisense eT*e[5mC]*e[5mC]*eA*e[5mC]*dA*dT*dG*dG*dA*dT*dA*dT*dT*d[5mC]*eA*eA*e[5mC]*eT*eG) [compound 407617]	67%
407916 (antisense eG*eT*eG*eG*e[5mC]*d[5mC]*d[5mC]*dA*d[5mC]*dG*dG*dT*dT*dG*d[5mC]*eG*e[5mC]*eA*eG*e[5mC]) [compound 407916]	53%
407601 (antisense e[5mC]*eA*eG*e[5mC]*e[5mC]*d[5mC]*dT*dG*dA*dA*dG*d[5mC]*d[5mC]*d[5mC]*dA*eA*eG*e[5mC]*eA*eG) [compound 407601]	52%
407943 (antisense eG*e[5mC]*eA*eG*eG*d[5mC]*dA*d[5mC]*d[5mC]*dA*d[5mC]*dA*dG*dG*dT*eG*eT*eG*e[5mC]*eG) [compound 407943]	34%
407626 (antisense eT*e[5mC]*eT*eT*eG*dA*dT*dT*dT*dT*dG*dT*d[5mC]*dG*dA*eA*eA*e[5mC]*eA*eG) [compound 407626]	82%
407921 (antisense e[5mC]*e[5mC]*eA*e[5mC]*eA*dG*dG*d[5mC]*d[5mC]*dA*dG*dG*dG*d[5mC]*dT*eG*e[5mC]*eT*eG*eG) [compound 407921]	65%
407665 (antisense eG*eT*eT*eA*e[5mC]*dG*dA*dA*dG*dA*d[5mC]*dT*dG*dG*dG*eA*eA*eA*eT*eG) [compound 407665]	29%
407658 (antisense eG*e[5mC]*eT*eT*eG*d[5mC]*d[5mC]*dG*dG*dA*dG*dT*d[5mC]*dT*dG*eA*eG*eT*eG*eG) [compound 407658]	16%
407937 (antisense eG*eA*eA*eG*eG*dG*dA*dG*dA*dA*dA*dT*dA*d[5mC]*dA*eT*eT*eT*eG*eG) [compound 407937]	59%

Same assay, conditions: Example 4; HepB3 cells, lipofectin, 50 nM, ~24 h, relative to untreated control

Substance	% Inhibition (human Factor 7 mRNA)
422270 (antisense eT*eG*dA*dG*d[5mC]*dG*d[5mC]*dG*dG*dA*dA*dG*dA*dA*dG*eG*eG*eA*e[5mC]*eG) [compound 422270]	15%
422199 (antisense eG*eG*eT*dT*dA*d[5mC]*dT*dG*dA*dG*d[5mC]*dG*d[5mC]*dG*dG*dA*dA*eG*eA*eA) [compound 422199]	65%
422188 (antisense eG*e[5mC]*eG*dG*dA*dA*dG*dA*dA*dG*dG*dG*dA*d[5mC]*dG*dG*dA*eA*eG*eG) [compound 422188]	37%
422265 (antisense eG*e[5mC]*dG*dG*dA*dA*dG*dA*dA*dG*dG*dG*dA*d[5mC]*dG*eG*eA*eA*eG*eG) [compound 422265]	34%
422194 (antisense e[5mC]*eT*eG*dA*dG*d[5mC]*dG*d[5mC]*dG*dG*dA*dA*dG*dA*dA*dG*dG*eG*eA*e[5mC]) [compound 422194]	11%
422126 (antisense eA*e[5mC]*eT*eG*eA*dG*d[5mC]*dG*d[5mC]*dG*dG*dA*dA*dG*dA*eA*eG*eG*eG*eA) [compound 422126]	22%

Same assay, conditions: Example 6 microwalk, nucleobases 15098 to 15122 of SEQ ID NO: 1; HepB3, lipofectin, 50 nM, ~24 h

Substance	% Inhibition (human Factor 7 mRNA)
422284 (antisense e[5mC]*eA*d[5mC]*dA*d[5mC]*dA*dT*dG*dG*dA*dG*dT*d[5mC]*dA*dG*e[5mC]*eA*eT*e[5mC]*eG) [compound 422284]	43%
422137 (antisense eA*e[5mC]*eA*eG*e[5mC]*dA*d[5mC]*dA*d[5mC]*dA*dT*dG*dG*dA*dG*eT*e[5mC]*eA*eG*e[5mC]) [compound 422137]	45%
422211 (antisense eA*e[5mC]*eA*dG*d[5mC]*dA*d[5mC]*dA*d[5mC]*dA*dT*dG*dG*dA*dG*dT*d[5mC]*eA*eG*e[5mC]) [compound 422211]	42%

Same assay, conditions: HepB3 cells, lipofectin, 50 nM antisense oligonucleotide, approximately 24 hours, primer probe set RTS 2927, relative to untreated control

Substance	% Inhibition of human Factor 7 mRNA levels
416534 (antisense eA*eT*eG*e[5mC]*eA*d[5mC]*dA*d[5mC]*d[5mC]*dA*dG*dG*dG*d[5mC]*dT*eG*e[5mC]*eT*eG*eG) [compound 416534]	32%
416459 (antisense eT*eG*eG*eT*e[5mC]*dA*dG*dT*dG*dA*dG*dG*dA*d[5mC]*d[5mC]*eA*e[5mC]*eG*eG*eG) [compound 416459]	23%
416424 (antisense eG*eA*eG*eA*e[5mC]*d[5mC]*dA*dT*dG*dA*dT*dG*dA*dA*dA*eT*e[5mC]*eT*e[5mC]*eT) [compound 416424]	27%
416526 (antisense eT*eG*eT*e[5mC]*e[5mC]*dA*d[5mC]*dA*dT*dG*dA*d[5mC]*d[5mC]*d[5mC]*d[5mC]*eA*e[5mC]*eA*eG*eG) [compound 416526]	19%
416454 (antisense e[5mC]*eG*eT*eG*e[5mC]*dT*d[5mC]*dG*d[5mC]*d[5mC]*d[5mC]*dA*dG*d[5mC]*dA*e[5mC]*e[5mC]*eG*e[5mC]*eG) [compound 416454]	56%
416462 (antisense eG*eG*e[5mC]*eA*eG*dT*d[5mC]*d[5mC]*dT*dG*dG*dG*dT*d[5mC]*dA*eT*e[5mC]*eA*eG*e[5mC]) [compound 416462]	60%
416444 (antisense eA*e[5mC]*eA*eG*eT*dT*d[5mC]*d[5mC]*dG*dG*d[5mC]*d[5mC]*d[5mC]*dT*d[5mC]*eG*eA*eA*eG*eG) [compound 416444]	24%
416422 (antisense eA*eG*e[5mC]*eG*eA*d[5mC]*d[5mC]*d[5mC]*d[5mC]*dG*d[5mC]*d[5mC]*dT*dG*d[5mC]*eA*eG*e[5mC]*e[5mC]*eA) [compound 416422]	8%
416533 (antisense eG*e[5mC]*eA*eT*eT*d[5mC]*dT*dG*dG*dA*d[5mC]*d[5mC]*d[5mC]*dA*dG*eA*eT*eG*eA*e[5mC]) [compound 416533]	41%
416543 (antisense eT*e[5mC]*e[5mC]*eT*eG*d[5mC]*dG*dA*dG*dT*dG*dG*dG*dA*dG*eT*eT*eG*eG*eA) [compound 416543]	0%

Same assay, conditions: HepB3 cells; gapmers (5-10-5, 3-14-3, 2-13-5 MOE) targeted to nucleobases 4868 to 4899 of SEQ ID NO: 1

Substance	% Inhibition of human Factor 7 mRNA levels
422222 (antisense eA*eG*e[5mC]*d[5mC]*d[5mC]*dG*dA*dG*dT*dT*d[5mC]*dT*dG*d[5mC]*dA*dG*dG*eA*eG*e[5mC]) [compound 422222]	55%
422293 (antisense eA*eG*dT*dT*d[5mC]*dT*dG*d[5mC]*dA*dG*dG*dA*dG*d[5mC]*dG*eG*e[5mC]*e[5mC]*eT*eA) [compound 422293]	69%

Same assay, conditions: HepB3 cells; gapmers targeted to nucleobases 11830 to 11869 of SEQ ID NO: 1 (Table 9)

Substance	% Inhibition of human Factor 7 mRNA levels
422098 (antisense eG*eG*eA*eG*eA*d[5mC]*dA*dA*dT*dG*dG*dT*d[5mC]*dA*dG*eG*eG*e[5mC]*eT*eG) [compound 422098]	53%
422107 (antisense eG*e[5mC]*eT*eG*eG*d[5mC]*dT*dG*dA*dG*dG*dA*dG*dA*d[5mC]*eA*eA*eT*eG*eG) [compound 422107]	36%
422166 (antisense eA*eG*eG*dA*dG*dA*d[5mC]*dA*dA*dT*dG*dG*dT*d[5mC]*dA*dG*dG*eG*e[5mC]*eT) [compound 422166]	63%
422172 (antisense eT*eG*eG*d[5mC]*dT*dG*dA*dG*dG*dA*dG*dA*d[5mC]*dA*dA*dT*dG*eG*eT*e[5mC]) [compound 422172]	39%
422246 (antisense e[5mC]*eT*dG*dA*dG*dG*dA*dG*dA*d[5mC]*dA*dA*dT*dG*dG*eT*e[5mC]*eA*eG*eG) [compound 422246]	46%
422094 (antisense e[5mC]*eA*eA*eT*eG*dG*dT*d[5mC]*dA*dG*dG*dG*d[5mC]*dT*dG*eG*eT*eT*eT*eT) [compound 422094]	48%
422168 (antisense eT*eG*eA*dG*dG*dA*dG*dA*d[5mC]*dA*dA*dT*dG*dG*dT*d[5mC]*dA*eG*eG*eG) [compound 422168]	30%

Same assay, conditions: HepB3 cells; gapmers targeted to nucleobases 13760 to 13789 of SEQ ID NO: 1 (Table 10)

Substance	% Inhibition of human Factor 7 mRNA levels
422176 (antisense e[5mC]*e[5mC]*eG*d[5mC]*d[5mC]*dG*dG*d[5mC]*dT*d[5mC]*dT*dG*d[5mC]*dT*d[5mC]*dA*dT*e[5mC]*e[5mC]*e[5mC]) [compound 422176]	52%

Same assay, conditions: HepB3 cells; gapmers targeted to nucleobases 15188 to 15211 of SEQ ID NO: 1 (Table 13)

Substance	% Inhibition of human Factor 7 mRNA levels
422227 (antisense eG*e[5mC]*dA*dT*dG*dG*dT*dG*dA*dT*dG*d[5mC]*dT*dT*d[5mC]*eT*eG*eA*eA*eT) [compound 422227]	67%

Source: patent publication US20120214862A1, “MODULATION OF FACTOR 7 EXPRESSION” (ISIS Pharmaceuticals, Inc., priority 2009, published 2012)
